Assay: xn = mol fraction of the nth substance listed
Details: 100 kPa

For `CCCC[n+]1ccn(C)c1C.F[B-](F)(F)F` + O=C1CCCN1, the speed of sound (293.15 K, x1 = 0.0698) was 1659.6 m/s, the speed of sound (293.15 K, x1 = 0.1948) was 1670.6 m/s and the speed of sound (293.15 K, x1 = 0.2495) was 1672.1 m/s. The speed of sound (293.15 K, x1 = 0.2945) was 1671.9 m/s, the speed of sound (293.15 K, x1 = 0.3428) was 1670.8 m/s and the speed of sound (293.15 K, x1 = 0.3964) was 1666.8 m/s. For the same compound, the speed of sound (293.15 K, x1 = 0.4419) was 1661.9 m/s, the speed of sound (293.15 K, x1 = 0.5004) was 1653.8 m/s and the speed of sound (293.15 K, x1 = 0.5563) was 1645.8 m/s. The speed of sound (293.15 K, x1 = 0.5949) was 1640.2 m/s, the speed of sound (293.15 K, x1 = 0.6984) was 1626.6 m/s and the speed of sound (293.15 K, x1 = 0.7521) was 1622.1 m/s. It also gave a speed of sound (293.15 K, x1 = 0.8549) of 1623.2 m/s, a speed of sound (293.15 K, x1 = 0.9564) of 1642.5 m/s and a speed of sound (298.15 K, x1 = 0.0698) of 1644.9 m/s. For the same compound, the speed of sound (298.15 K, x1 = 0.1052) was 1649.6 m/s, the speed of sound (298.15 K, x1 = 0.1948) was 1659.8 m/s and the speed of sound (298.15 K, x1 = 0.2495) was 1662.8 m/s. It also gave a speed of sound (298.15 K, x1 = 0.2945) of 1663.3 m/s, a speed of sound (298.15 K, x1 = 0.3428) of 1662 m/s and a speed of sound (298.15 K, x1 = 0.3964) of 1658.3 m/s. The speed of sound (298.15 K, x1 = 0.5004) was 1645.7 m/s, the speed of sound (298.15 K, x1 = 0.5563) was 1637.1 m/s and the speed of sound (298.15 K, x1 = 0.5949) was 1630.9 m/s. The speed of sound (298.15 K, x1 = 0.6419) was 1623.6 m/s, the speed of sound (298.15 K, x1 = 0.6984) was 1616.1 m/s and the speed of sound (298.15 K, x1 = 0.8031) was 1608.8 m/s. The speed of sound (298.15 K, x1 = 0.8549) was 1610.3 m/s, the speed of sound (298.15 K, x1 = 0.9021) was 1615.8 m/s and the speed of sound (298.15 K, x1 = 0.9564) was 1628.7 m/s. It also gave a speed of sound (303.15 K, x1 = 0.0698) of 1629.3 m/s, a speed of sound (303.15 K, x1 = 0.1052) of 1634.8 m/s and a speed of sound (303.15 K, x1 = 0.1469) of 1640.6 m/s. For the same compound, the speed of sound (303.15 K, x1 = 0.2945) was 1652 m/s, the speed of sound (303.15 K, x1 = 0.3428) was 1651.2 m/s and the speed of sound (303.15 K, x1 = 0.4419) was 1643.3 m/s. It also gave a speed of sound (303.15 K, x1 = 0.5004) of 1635.6 m/s, a speed of sound (303.15 K, x1 = 0.5563) of 1626.5 m/s and a speed of sound (303.15 K, x1 = 0.5949) of 1620.4 m/s. It also gave a speed of sound (303.15 K, x1 = 0.6419) of 1613.1 m/s, a speed of sound (303.15 K, x1 = 0.6984) of 1605.4 m/s and a speed of sound (303.15 K, x1 = 0.7521) of 1599.8 m/s. The speed of sound (303.15 K, x1 = 0.8031) was 1596.7 m/s, the speed of sound (303.15 K, x1 = 0.8549) was 1597.8 m/s and the speed of sound (303.15 K, x1 = 0.9021) was 1603.4 m/s. The speed of sound (308.15 K, x1 = 0.0698) was 1615.7 m/s, the speed of sound (308.15 K, x1 = 0.1052) was 1621.9 m/s and the speed of sound (308.15 K, x1 = 0.1469) was 1628.7 m/s. The speed of sound (308.15 K, x1 = 0.1948) was 1634.9 m/s, the speed of sound (308.15 K, x1 = 0.2495) was 1638.3 m/s and the speed of sound (308.15 K, x1 = 0.2945) was 1640.1 m/s. For the same compound, the speed of sound (308.15 K, x1 = 0.3428) was 1639.9 m/s, the speed of sound (308.15 K, x1 = 0.3964) was 1637.2 m/s and the speed of sound (308.15 K, x1 = 0.4419) was 1633 m/s. The speed of sound (308.15 K, x1 = 0.5004) was 1625.8 m/s, the speed of sound (308.15 K, x1 = 0.5563) was 1617.3 m/s and the speed of sound (308.15 K, x1 = 0.5949) was 1611.1 m/s. It also gave a speed of sound (308.15 K, x1 = 0.6419) of 1603.7 m/s, a speed of sound (308.15 K, x1 = 0.6984) of 1595.6 m/s and a speed of sound (308.15 K, x1 = 0.7521) of 1589.4 m/s. For the same compound, the speed of sound (308.15 K, x1 = 0.8031) was 1586.2 m/s, the speed of sound (308.15 K, x1 = 0.8549) was 1586.8 m/s and the speed of sound (308.15 K, x1 = 0.9021) was 1591.6 m/s. The speed of sound (308.15 K, x1 = 0.9564) was 1603.7 m/s.

Reference: a compilation of properties of binary mixtures (doi:10.1007/s10953-021-01127-x)
